# Assay results taken from ChEMBL document CHEMBL1148271, “3-(2-pyrrolidin-1-ylethyl)-5-(1,2,3,6-tetrahydropyridin-4-yl)-1H-indole derivatives as high affinity human 5-HT(1B/1D) ligands” (Bioorg Med Chem Lett, 2004).
# How the values were obtained:
# [1] = biological target: 5-hydroxytryptamine receptor 1B (Homo sapiens, UniProt P28222); experiment: Binding affinity was evaluated at the cloned human 5-hydroxytryptamine 1B receptor
# [2] = biological target: 5-hydroxytryptamine receptor 1D (Homo sapiens, UniProt P28221); experiment: Binding affinity was evaluated at the cloned human 5-hydroxytryptamine 1D receptor
# Chain of 5-hydroxytryptamine receptor 1D (P28221 whole entry): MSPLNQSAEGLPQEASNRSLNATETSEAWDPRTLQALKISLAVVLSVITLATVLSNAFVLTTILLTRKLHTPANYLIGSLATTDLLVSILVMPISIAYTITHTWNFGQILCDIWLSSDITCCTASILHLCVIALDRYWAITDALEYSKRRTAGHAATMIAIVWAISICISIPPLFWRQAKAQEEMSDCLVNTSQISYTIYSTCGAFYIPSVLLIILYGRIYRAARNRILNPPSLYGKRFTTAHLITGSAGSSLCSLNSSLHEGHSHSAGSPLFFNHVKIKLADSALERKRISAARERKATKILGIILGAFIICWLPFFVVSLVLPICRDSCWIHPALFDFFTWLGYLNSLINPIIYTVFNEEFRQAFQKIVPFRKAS
# [3] = biological target: Serotonin 1 receptors; 5-HT1B & 5-HT1D (Homo sapiens) (UniProt P28222+P28221); experiment: Binding affinity ratio was evaluated (5-HT1B / 5-HT1D receptor); type: protein assay
# Chain of 5-hydroxytryptamine receptor 1B (P28222 whole entry): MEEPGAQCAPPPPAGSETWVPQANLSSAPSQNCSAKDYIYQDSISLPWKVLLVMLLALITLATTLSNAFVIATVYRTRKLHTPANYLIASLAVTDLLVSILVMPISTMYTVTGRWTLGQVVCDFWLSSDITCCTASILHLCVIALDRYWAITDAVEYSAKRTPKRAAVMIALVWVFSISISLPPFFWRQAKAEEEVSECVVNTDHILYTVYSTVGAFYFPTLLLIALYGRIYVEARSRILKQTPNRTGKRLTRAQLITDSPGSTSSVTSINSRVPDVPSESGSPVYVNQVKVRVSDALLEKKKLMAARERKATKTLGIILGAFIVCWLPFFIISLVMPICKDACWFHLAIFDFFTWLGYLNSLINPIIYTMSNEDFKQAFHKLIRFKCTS
SMILES,Ki [1],Ki [2],Ratio [3]
Cc1ccc(S(=O)(=O)N2CC=C(c3ccc4[nH]cc(CCN5CCCC5)c4c3)CC2)cc1,140 nM,12 nM,12
COc1ccc(NC(=O)N2CC=C(c3ccc4[nH]cc(CCN5CCCC5)c4c3)CC2)cc1,44 nM,7.8 nM,5.6
CN(C)CCc1c[nH]c2ccc(C3=CCN(C)CC3)cc12,,,76
C1=C(c2ccc3[nH]cc(CCN4CCCC4)c3c2)CCNC1,760 nM,74 nM,10
COc1ccc(S(=O)(=O)N2CC=C(c3ccc4[nH]cc(CCN5CCCC5)c4c3)CC2)cc1,140 nM,11 nM,13
S=C(NC12CC3CC(CC(C3)C1)C2)N1CC=C(c2ccc3[nH]cc(CCN4CCCC4)c3c2)CC1,170 nM,29 nM,5.9
O=S(=O)(c1ccc(Cl)cc1)N1CC=C(c2ccc3[nH]cc(CCN4CCCC4)c3c2)CC1,110 nM,9.3 nM,12
O=S(=O)(c1ccccc1)N1CC=C(c2ccc3[nH]cc(CCN4CCCC4)c3c2)CC1,440 nM,21 nM,21
O=C(Nc1cccc2ccccc12)N1CC=C(c2ccc3[nH]cc(CCN4CCCC4)c3c2)CC1,65 nM,8.8 nM,7.6
O=S(=O)(c1cccc2ccccc12)N1CC=C(c2ccc3[nH]cc(CCN4CCCC4)c3c2)CC1,410 nM,27 nM,15
O=C(NC12CC3CC(CC(C3)C1)C2)N1CC=C(c2ccc3[nH]cc(CCN4CCCC4)c3c2)CC1,64 nM,29 nM,2.2
COc1ccc(NC(=S)N2CC=C(c3ccc4[nH]cc(CCN5CCCC5)c4c3)CC2)cc1,58 nM,6.2 nM,9.3
